Broadly, the melting point is the temperature, or range, at which the solid turns liquid. Usually AUC stands for the area under the concentration-time curve, a measure of exposure. By MRT is commonly meant the average time that molecules of a dose stay in the body.

Molecules are shown by their SMILES.

The test system of one series is Calvarial osteoblasts. Description: Alkaline phosphatase (ALP) activity for osteoblast differentiation, calvarial osteoblasts. The class given is cell-based, rat. The conditions noted are these: calvarial osteoblasts, 48 h, 10^−12M to 10^−6M. The protocol:
(§1) Neonatal rat calvarial cell cultures are prepared as described previously (Endocrinology 145:3451) using slight modification. Briefly, for primary osteoblast cell cultures, frontal and parietal bones from Sprague-Dawley rat neonates (1-3 day old) are digested in 0.1% collagenase/0.1% dispase in α-MEM to obtain 5 sequential digests. The second through fifth digests are combined and grown to confluence at 37° C. and 5% CO2 in air in α-MEM, supplemented with 10% fetal bovine serum (FBS), 2 mM glutamine, 100 U/ml penicillin-streptomycin, Non-essential amino acid solution and sodium pyruvate.
70 to 80% confluent Calvarial osteoblasts were treated with μM S006-1709 for 48 h in the presence of ascorbate and glycerophosphate. At the end of incubation period, total ALP activity was measured with a method using p-nitrophenylphosphate (PNPP) as substrate. The reaction mixture contained diethanolamine buffer (1 mol/L, pH 9.8), 0.5 mmol/L MgCl2.6H2O, and 10 mmol/L PNPP. ALP activity was measured by taking OD of the amount of colored product formed by the dephosphorylation of PNPP at 405 nm. […] In addition, the effect of S006-1709 on mineralization of calvarial osteoblasts was studied.
We then studied its effect in osteoblast differentiation in both calvarial and bone marrow osteoblasts. Confluent calvarial osteoblasts (70 to 80%) were treated with S006-1710 for 48 h in the presence of ascorbate and glycerophosphate at concentrations ranging from 10^−16M to 10^−6M. At the end of incubation period, total ALP activity was measured with the same method used previously using p-nitrophenylphosphate (PNPP) as substrate.
70 to 80% confluent Calvarial osteoblasts were treated with S007-1351 for 48 h in the presence of ascorbate and glycerophosphate. At the end of incubation period, total ALP activity was measured with a method using p-nitrophenylphosphate (PNPP) as substrate. The reaction mixture contained diethanolamine buffer (1 mol/L, pH 9.8), 0.5 mmol/L MgCl2.6H2O, and 10 mmol/L PNPP. ALP activity was measured by taking OD of the amount of colored product formed by the dephosphorylation of PNPP at 405 nm.
70 to 80% confluent calvarial osteoblasts were treated with S007-1352 for 48 h in the presence of ascorbate and glycerophosphate at concentrations ranging from 10^−12M to 10^−6 M. At the end of incubation period, total ALP activity was measured with the same method used previously using p-nitrophenylphosphate (PNPP) as substrate.

For another series, the system named is 3T3-L1 cells. Description: Anti-adipogenic effect (Oil Red O) in 3T3-L1 cells. The class given is cell-based, mouse. The protocol: The best characterized model of adipogenesis in vitro is the 3T3-L1 cell line, a substrain of Swiss 3T3 mouse cell line. 3T3-L1 cells propagated under normal conditions have a fibroblastic phenotype. However, when treated with a combination of dexamethasone, isobutylmethylxanthine (IBMX or MIX) and insulin, 3T3-L1 cells adopt a rounded phenotype and within 5 days begin to accumulate lipids intracellularly in the form of lipid droplets.
3T3-L1 cells were plated in 48-well plates 40,000 cells/well. The cells were incubated in DMEM containing fetal calf serum for 2 days until the cells become confluent. The cells were then incubated with Adipogenesis initiation media which contains DMEM with 10% FCS, IBMX and dexamethasone for 48 hrs at 37° C., 5% CO2. After two days the media was replaced with Adipogenesis Progression media which contains DMEM/10% FCS and insulin for 48 hrs at 37° C., 5% CO2, Media was again changed gently to Adipogenesis maintenance media for 48 hrs at 37° C., 5% CO2. At the end of eight days of experiment the cells were fixed and then stained with Oil Red O which stains lipid droplets. The dye was extracted and extracted dye was transferred to a 96-well plate and absorbance of extracted Oil Red O was measured in a plate reader at 490 nm.
Compounds S006-1709, S007-1351-53, S007-1495 and S007-1500 were tested in vitro in 3T3L1 cell line at two concentrations 10^−10 M and 10^−12M. FIG. 8A depicts the adipocytes formed at the end of the 8 day experiment. The fixed cells were stained with Oil Red O. The dye was then extracted and quantified.

Series [1] relates to ovariectomized immature female rats. Description: Estrogenicity, uterine fresh weight in ovariectomized immature female rats. The class given is in vivo, rat. The conditions noted are these: 10 mg/Kg oral. How it is done:
(§2) 21 day old immature female rats (25-30 grams) were ovariectomized and given 7 days post-operative rest. Thereafter they were treated orally with the test agent (10 mg/Kg body weight) or with vehicle or Ethynyl estradiol, the reference standard for three consecutive days. For anti-estrogenicity, other than the test chemical, ethynyl estradiol (0.01 mg/kg) was given at 15 minutes interval before the test chemical. Autopsy was done 24 h after last treatment and uterine fresh weight was taken.

For series [2], the system named is Immature 21 d old female SD rat. Description: In vivo efficacy, BMD in immature female SD rats. How it is done:
Immature 21 d old female SD rat model was chosen, animals were randomized into four groups and treated with a daily dose of test agent or vehicle for one month and autopsied on day 31.
[…], the animals were shifted to metabolic cage for acclaimatization for 24 h with food and water. Post acclaimatization animals were further left in metabolic cage for 24 h with water but no food. Blood and urine samples were collected after 24 h. Various biochemical parameters like serum calcium, serum phosphorus, serum osteocalcin, serum alkaline phosphatase (ALP) were evaluated. The animals were autopsied on day 31 and lumbar vertebrae, femur and tibia bones were isolated, cleaned and fixed in 70% ethanol in saline and stored at 4° C. until BMD measurement. Initial and final body weight and uterine weight at autopsy were recorded. BMD measurements of region of interest (lumbar: global, L1-L4; femur: global, neck and mid-shaft; tibia: global, proximal and tibio-fibula junction point) was performed using a bone densitometer (Model 4500 Elite, Hologic) fitted with commercially available software (QDR 4500 ACCLAIM series) for a fan-beam DXA system that permits determination of bone densitometry and measurement of body composition in small animals in vivo.

Series [3] deals with Calvarial osteoblast cells. As to the kind of experiment: MTT cell proliferation assay. The class given is cell-based, rat. Conditions: 10^−10 M to 10^−6M, 24 hrs. The protocol:
as §1
MTT [3-(4,5-dimethylthiazol-2-yl)-2,5-diphenyltetrazolium bromide] assay, first described by Mosmann in 1983, is based on the ability of a mitochondrial dehydrogenase enzyme from viable cells to cleave the tetrazolium rings of the pale yellow MTT and form a dark blue formazan crystals which is largely impermeable to cell membranes, thus resulting in its accumulation within healthy cells. Solubilisation of the cells by the addition of a detergent results in the liberation of the crystals which are solubilized. The number of surviving cells is directly proportional to the level of the formazan product created. The color can then be quantified using a simple colorimetric assay. The results can be read on a multiwell scanning spectrophotometer (Mosmann T. Rapid colorimetric assay for cellular growth and survival: application to proliferation and cytotoxicity assays. J Immunol Methods. 1983 Dec. 16; 65(1-2):55-63).
Calvarial osteoblast cells plated at a density of 2.0×10^3 cells/200 ul in 96 wells plates. Cells were grown to 60% confluency and then treated with following compounds S006-1709, S006-1710, 5006-1711, S006-1713 and; S006-1714 at concentrations ranging from 10^−10 M to 10^−6M for 24 hrs. After treatment media was removed and 10 mM MTT was added solution in phenol red free DMEM media. After an incubation of 4 hrs the MTT solution was removed. Blue colored crystals were formed which were dissolved in DMSO and absorbance was read on ELISA plate reader at 570 nm wavelength.
In general terms: Tetrazolium assays rely on reduction of a dye to a coloured formazan, in cell work by metabolically active cells.

Series [4] has as its system ovariectomized immature female rats. As to the kind of experiment: Anti-estrogenicity, uterine fresh weight with ethynyl estradiol co-treatment. The series is classed as in vivo, rat. Conditions: 10 mg/Kg oral plus ethynyl estradiol 0.01 mg/kg. How it is done:
as §2

Series [5] is described as follows: Pharmacokinetic studies in Sprague Dawley rats. The class given is in vivo. The conditions noted are these: rat, plasma, SD rats, oral dose of 5 mg/kg. The protocol: In-vivo pharmacokinetic parameters were generated in Sprague Dawley rats at a dose of 5 mg/kg by oral route of administration. The blood samples were drawn at 0.25, 0.5, 0.75, 1.0, 1.5, 2.0, 2.5, 4.0, 6, 8, 10, 12, 18, 24, 28, 36 and 48 hours, processed and analyzed by Liquid Chromatography-Mass Spectrometry (LC-MS). Plasma concentration at different time points were plotted to give Plasma Concentration Time Profile and the data was fitted non-compartmentally using Win NonLin 5.1 version software and the estimates of pharmacokinetic parameters were derived with SD mean values.

The mark [6] stands for this setting: 3T3L1, both concentrations (10^−10 M and 10^−12M).
[7] abbreviates: 10 mg/kg daily, one month, vehicle = 100.

Take `COc1ccccc1-c1coc2c(O)c(O)ccc2c1=O` [Compound S007-1352, 7,8-Dihydroxy-3-(2-methoxy-phenyl)-chromen-4-one]: the melting point was in the range of 220 to 222 °C. Moreover, the “osteoblast ALP activity vs vehicle control” value in the series with Calvarial osteoblasts is reported as “significant increase”. The effect on adipogenesis entry with 3T3-L1 cells (setting [6]) was “inducers of adipogenesis”.

For the molecule `O=c1c(-c2ccccc2O)coc2c(O)c(O)ccc12` [Compound S007-1351, 7,8-Dihydroxy-3-(2-hydroxy-phenyl)-chromen-4-one], the melting point lay in the range of 240 to 242 °C. In addition, in the series on Calvarial osteoblasts, the “osteoblast ALP activity vs vehicle control” value is “significant increase”. For the same molecule, in the series on 3T3-L1 cells (setting [6]), the effect on adipogenesis entry is recorded as “inducers of adipogenesis”.

As to `C=CCOc1ccc2c(c1C)OCC1c3ccccc3OC21` (stereo not drawn) [Compound S007-1500, 3-Allyloxy-4-methyl-6a,11a-dihydro-6H-benzo[4,5]furo[3,2-c]chromene], in the series with Calvarial osteoblasts, the “osteoblast ALP activity vs vehicle control” value was “stimulated ALP activity”. Further, the “osteoblast ALP activity vs vehicle control” value in the series on Calvarial osteoblasts (listed as S-007-1500) is recorded as “showed stimulation in ALP activity”. Further, in the series on 3T3-L1 cells (3T3L1, at different concentrations (10^−10 M and 10^−12M tested)), the effect on adipogenesis entry is recorded as “significantly inhibited adipogenesis”. Besides, the “estrogenicity (in words)” value in series [1] was “devoid of any estrogenicity”. In addition, in series [2] (1 mg/kg daily, one month), the “BMD % increase versus vehicle control, FEMUR Global” value is recorded as “+27%”; the “BMD % increase versus vehicle control, FEMUR Mid-shaft” value is on record as “+35%”; the “BMD % increase versus vehicle control, FEMUR Neck” value was “+16%”; the “BMD % increase versus vehicle control, LUMBER VERTEBRAE Global” value was “+13%”. In series [2] (1 mg/kg daily, one month), the “BMD % increase versus vehicle control, LUMBER VERTEBRAE L-1” value is on record as “+6%”; the “BMD % increase versus vehicle control, LUMBER VERTEBRAE L-2” value was “+21%”; the “BMD % increase versus vehicle control, LUMBER VERTEBRAE L-3” value is “+5.5%”; the “BMD % increase versus vehicle control, LUMBER VERTEBRAE L-4” value is −8.5%. Moreover, in series [2] (1 mg/kg daily, one month), the “BMD % increase versus vehicle control, TIBIA Global” value is “+35%”; the “BMD % increase versus vehicle control, TIBIA Proximal” value is “+16.5%”; the “BMD % increase versus vehicle control, TIBIA TFSP” value is recorded as “+70%”. In series [2] (5 mg/kg daily, one month), the “BMD % increase versus vehicle control, FEMUR Global” value is given as “+25%”; the “BMD % increase versus vehicle control, FEMUR Mid-shaft” value is recorded as “+30%”; the “BMD % increase versus vehicle control, FEMUR Neck” value was “+26%”; the “BMD % increase versus vehicle control, LUMBER VERTEBRAE Global” value is listed as “+17%”. In series [2] (5 mg/kg daily, one month), the “BMD % increase versus vehicle control, LUMBER VERTEBRAE L-1” value was “+7%”; the “BMD % increase versus vehicle control, LUMBER VERTEBRAE L-2” value is given as “+14.5%”; the “BMD % increase versus vehicle control, LUMBER VERTEBRAE L-3” value is “+25%”; the “BMD % increase versus vehicle control, LUMBER VERTEBRAE L-4” value is “+14%”. Further, in series [2] (5 mg/kg daily, one month), the “BMD % increase versus vehicle control, TIBIA Global” value is reported as “+37%”; the “BMD % increase versus vehicle control, TIBIA Proximal” value is given as “+33%”; the “BMD % increase versus vehicle control, TIBIA TFSP” value is reported as “+69%”. Besides, the “BMD in Femur and Tibia (in words)” value in series [2] (both doses of 1.0 and 5.0 mg/kg) is “significant increase”.

The molecule `Oc1ccc2c(c1)OCC1c3ccccc3OC21` (stereo not drawn) [Compound S006-1709, 6a,11a-Dihydro-6H-benzo[4,5]furo[3,2-c]chromen-3-ol] registered a melting point of 148 to 152 °C. Besides, the “effect on osteoblast proliferation (MTT)” value in series [3] is recorded as “no effect”. For the same molecule, the “Estrogenic Activity (uterine fresh weight)” value in series [1] (three consecutive days, vehicle 16.46) is 15.8. In series [4], the “Anti-Estrogenic Activity (uterine fresh weight)” value is given as 96.86. In addition, in series [4] (relative to ethynyl estradiol), the “Anti-Estrogenic Activity, % (second line of cell)” value is −1.5%^. Also, in series [2] (setting [7]), the “Change in BMD, Femur Global” value is given as 138.75; the “Change in BMD, Femur Neck” value came to 141; the “Change in BMD, Femur Shaft” value is listed as 167; the “Change in BMD, Lumber Vertebra Global” value was found to be 120. Also, in series [2] (setting [7]), the “Change in BMD, Lumber Vertebra LV1” value was determined as 126; the “Change in BMD, Lumber Vertebra LV2” value came out at 124; the “Change in BMD, Lumber Vertebra LV3” value came to 90.3; the “Change in BMD, Lumber Vertebra LV4” value came out at 125. Moreover, in series [2] (setting [7]), the “Change in BMD, Tibia Global” value stood at 133; the “Change in BMD, Tibia Head” value came out at 115; the “Change in BMD, Tibia TFSP” value was found to be 124. The area under the curve (AUC) in series [5] (read-out: Area under curve (AUC)) was 32.1 ± 12 ng·h/mL. In series [5] (read-out: Maximum plasma concentration (Cmax)), the Cmax is 17.5 ± 1.76 ng/mL. Moreover, the half-life in series [5] (read-out: elimination half life (T1/2) (converted)) is 2.5 h. Also, in series [5] (read-out: mean residence time (MRT)), the mean residence time MRT was 3.5 h. The Tmax in series [5] (read-out: time to achieve maximum plasma concentration (tmax) (converted)) is 0.25 h.
